Experimental data: ChEMBL document CHEMBL4507303, “Data for DCP probe TP-004” (2021)

How the values were obtained:
[1] = molecular target: AP2-associated protein kinase 1 (Homo sapiens) (UniProt Q2M2I8); conditions: Compound concentration 1000.0 nM
[2] = system: Tyrosine-protein kinase ABL1 (Homo sapiens), P00519 [F317L]; conditions: Compound concentration 1000.0 nM
[3] = molecular target: Tyrosine-protein kinase ABL1 (Homo sapiens) (UniProt P00519); conditions: Compound concentration 1000.0 nM
[4] = molecular target: Cyclin-dependent kinase 4 (Homo sapiens) (UniProt P11802); conditions: Compound concentration 1000.0 nM
[5] = molecular target: Cyclin-dependent kinase-like 1 (Homo sapiens) (UniProt Q00532); conditions: Compound concentration 1000.0 nM
[6] = molecular target: Citron Rho-interacting kinase (Homo sapiens) (UniProt O14578); conditions: Compound concentration 1000.0 nM
[7] = molecular target: Dual specificity protein kinase CLK2 (Homo sapiens) (UniProt P49760); conditions: Compound concentration 1000.0 nM
[8] = molecular target: Macrophage colony-stimulating factor 1 receptor (Homo sapiens) (UniProt P07333); conditions: Compound concentration 1000.0 nM
[9] = molecular target: Casein kinase I isoform gamma-2 (Homo sapiens) (UniProt P78368); conditions: Compound concentration 1000.0 nM
[10] = molecular target: Epithelial discoidin domain-containing receptor 1 (Homo sapiens) (UniProt Q08345); conditions: Compound concentration 1000.0 nM
[11] = molecular target: Ephrin type-A receptor 4 (Homo sapiens) (UniProt P54764); conditions: Compound concentration 1000.0 nM
[12] = system: Receptor-type tyrosine-protein kinase FLT3 (Homo sapiens), P36888 [D835H]; conditions: Compound concentration 1000.0 nM
[13] = system: Receptor-type tyrosine-protein kinase FLT3 (Homo sapiens), P36888 [UNDEFINED MUTATION]; conditions: Compound concentration 1000.0 nM
[14] = molecular target: Glycogen synthase kinase-3 alpha (Homo sapiens) (UniProt P49840); conditions: Compound concentration 1000.0 nM
[15] = molecular target: Homeodomain-interacting protein kinase 3 (Homo sapiens) (UniProt Q9H422); conditions: Compound concentration 1000.0 nM
[16] = molecular target: Inhibitor of nuclear factor kappa-B kinase subunit epsilon (Homo sapiens) (UniProt Q14164); conditions: Compound concentration 1000.0 nM
[17] = molecular target: Interleukin-1 receptor-associated kinase 1 (Homo sapiens) (UniProt P51617); conditions: Compound concentration 1000.0 nM
[18] = system: Mast/stem cell growth factor receptor Kit (Homo sapiens), P10721 [L576P]; conditions: Compound concentration 1000.0 nM
[19] = system: Mast/stem cell growth factor receptor Kit (Homo sapiens), P10721 [V559D,V654A]; conditions: Compound concentration 1000.0 nM
[20] = molecular target: LIM domain kinase 1 (Homo sapiens) (UniProt P53667); conditions: Compound concentration 1000.0 nM
[21] = molecular target: LIM domain kinase 2 (Homo sapiens) (UniProt P53671); conditions: Compound concentration 1000.0 nM
[22] = molecular target: Mitogen-activated protein kinase kinase kinase 1 (Homo sapiens) (UniProt Q13233); conditions: Compound concentration 1000.0 nM
[23] = molecular target: Serine/threonine-protein kinase MARK1 (Homo sapiens) (UniProt Q9P0L2); conditions: Compound concentration 1000.0 nM
[24] = molecular target: Dual specificity mitogen-activated protein kinase kinase 2 (Homo sapiens) (UniProt P36507); conditions: Compound concentration 1000.0 nM
[25] = molecular target: MAP kinase-interacting serine/threonine-protein kinase 2 (Homo sapiens) (UniProt Q9HBH9); conditions: Compound concentration 1000.0 nM
[26] = molecular target: Myosin light chain kinase (Homo sapiens) (UniProt Q32MK0); conditions: Compound concentration 1000.0 nM
[27] = molecular target: Serine/threonine-protein kinase Nek5 (Homo sapiens) (UniProt Q6P3R8); conditions: Compound concentration 1000.0 nM
[28] = molecular target: Serine/threonine-protein kinase NLK (Homo sapiens) (UniProt Q9UBE8); conditions: Compound concentration 1000.0 nM
[29] = molecular target: Serine/threonine-protein kinase PAK 4 (Homo sapiens) (UniProt O96013); conditions: Compound concentration 1000.0 nM
[30] = molecular target: Cyclin-dependent kinase 14 (Homo sapiens) (UniProt O94921); conditions: Compound concentration 1000.0 nM
[31] = system: Phosphatidylinositol 4,5-bisphosphate 3-kinase catalytic subunit alpha isoform (Homo sapiens), P42336 [E542K]; conditions: Compound concentration 1000.0 nM
[32] = molecular target: Serine/threonine-protein kinase pim-3 (Homo sapiens) (UniProt Q86V86); conditions: Compound concentration 1000.0 nM
[33] = molecular target: Protein kinase C epsilon type (Homo sapiens) (UniProt Q02156); conditions: Compound concentration 1000.0 nM
[34] = molecular target: Serine/threonine-protein kinase RIO1 (Homo sapiens) (UniProt Q9BRS2); conditions: Compound concentration 1000.0 nM
[35] = molecular target: Serine/threonine-protein kinase RIO3 (Homo sapiens) (UniProt O14730); conditions: Compound concentration 1000.0 nM
[36] = molecular target: Receptor-interacting serine/threonine-protein kinase 2 (Homo sapiens) (UniProt O43353); conditions: Compound concentration 1000.0 nM
[37] = molecular target: Ribosomal protein S6 kinase alpha-2 (Homo sapiens) (UniProt Q15349); conditions: Compound concentration 1000.0 nM
[38] = molecular target: Ribosomal protein S6 kinase alpha-6 (Homo sapiens) (UniProt Q9UK32); conditions: Compound concentration 1000.0 nM
[39] = molecular target: Serine/threonine-protein kinase SIK1 (Homo sapiens) (UniProt P57059); conditions: Compound concentration 1000.0 nM
[40] = molecular target: Serine/threonine-protein kinase 33 (Homo sapiens) (UniProt Q9BYT3); conditions: Compound concentration 1000.0 nM
[41] = molecular target: Serine/threonine-protein kinase TAO2 (Homo sapiens) (UniProt Q9UL54); conditions: Compound concentration 1000.0 nM
[42] = molecular target: Serine/threonine-protein kinase WNK3 (Homo sapiens) (UniProt Q9BYP7); conditions: Compound concentration 1000.0 nM
[43] = molecular target: Mitogen-activated protein kinase kinase kinase 20 (Homo sapiens) (UniProt Q9NYL2); conditions: Compound concentration 1000.0 nM
[44] = molecular target: Beta-2 adrenergic receptor (Homo sapiens) (UniProt P07550); conditions: Compound concentration 10.0 uM
[45] = molecular target: Beta-3 adrenergic receptor (Homo sapiens) (UniProt P13945); conditions: Compound concentration 10.0 uM

Ephrin type-A receptor 4 (Homo sapiens), sequence (P54764 whole entry): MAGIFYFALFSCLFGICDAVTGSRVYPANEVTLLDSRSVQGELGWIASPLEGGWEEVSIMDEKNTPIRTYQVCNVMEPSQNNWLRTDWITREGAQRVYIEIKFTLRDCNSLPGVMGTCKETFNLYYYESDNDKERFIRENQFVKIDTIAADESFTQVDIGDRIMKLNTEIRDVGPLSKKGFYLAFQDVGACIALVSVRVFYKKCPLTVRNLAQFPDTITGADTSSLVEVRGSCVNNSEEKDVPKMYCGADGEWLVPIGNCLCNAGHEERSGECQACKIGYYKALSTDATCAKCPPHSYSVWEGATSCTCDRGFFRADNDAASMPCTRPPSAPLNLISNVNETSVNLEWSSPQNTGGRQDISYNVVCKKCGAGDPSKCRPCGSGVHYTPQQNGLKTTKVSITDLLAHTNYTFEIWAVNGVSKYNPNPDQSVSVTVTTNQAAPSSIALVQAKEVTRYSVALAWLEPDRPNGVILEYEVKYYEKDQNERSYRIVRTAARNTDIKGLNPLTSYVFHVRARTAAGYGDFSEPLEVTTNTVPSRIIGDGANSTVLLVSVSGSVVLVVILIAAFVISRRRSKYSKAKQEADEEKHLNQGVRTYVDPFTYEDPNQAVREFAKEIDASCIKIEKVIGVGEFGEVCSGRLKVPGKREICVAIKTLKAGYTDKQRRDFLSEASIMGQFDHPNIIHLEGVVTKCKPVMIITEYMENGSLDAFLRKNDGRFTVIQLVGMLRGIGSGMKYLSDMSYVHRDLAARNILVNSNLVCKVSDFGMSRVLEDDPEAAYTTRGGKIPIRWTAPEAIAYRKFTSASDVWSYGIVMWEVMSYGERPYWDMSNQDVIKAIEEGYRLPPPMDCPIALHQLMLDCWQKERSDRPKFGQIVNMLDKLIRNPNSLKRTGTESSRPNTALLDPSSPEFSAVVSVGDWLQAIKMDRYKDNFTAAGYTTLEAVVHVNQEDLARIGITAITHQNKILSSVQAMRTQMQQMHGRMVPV
MAP kinase-interacting serine/threonine-protein kinase 2 (Homo sapiens), sequence (Q9HBH9 whole entry, looked up): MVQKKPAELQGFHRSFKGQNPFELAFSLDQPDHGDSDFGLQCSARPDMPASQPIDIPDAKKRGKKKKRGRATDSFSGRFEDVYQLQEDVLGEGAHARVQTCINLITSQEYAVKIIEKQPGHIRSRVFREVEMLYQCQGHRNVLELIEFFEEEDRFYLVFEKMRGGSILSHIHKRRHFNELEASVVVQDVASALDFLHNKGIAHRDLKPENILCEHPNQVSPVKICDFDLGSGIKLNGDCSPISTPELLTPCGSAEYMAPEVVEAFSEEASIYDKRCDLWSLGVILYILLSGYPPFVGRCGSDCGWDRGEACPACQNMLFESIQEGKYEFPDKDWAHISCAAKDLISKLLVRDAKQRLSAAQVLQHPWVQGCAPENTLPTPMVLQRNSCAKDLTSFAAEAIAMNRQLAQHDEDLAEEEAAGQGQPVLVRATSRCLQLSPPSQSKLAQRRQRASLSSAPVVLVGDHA
Serine/threonine-protein kinase WNK3 (Homo sapiens), sequence (Q9BYP7 whole entry): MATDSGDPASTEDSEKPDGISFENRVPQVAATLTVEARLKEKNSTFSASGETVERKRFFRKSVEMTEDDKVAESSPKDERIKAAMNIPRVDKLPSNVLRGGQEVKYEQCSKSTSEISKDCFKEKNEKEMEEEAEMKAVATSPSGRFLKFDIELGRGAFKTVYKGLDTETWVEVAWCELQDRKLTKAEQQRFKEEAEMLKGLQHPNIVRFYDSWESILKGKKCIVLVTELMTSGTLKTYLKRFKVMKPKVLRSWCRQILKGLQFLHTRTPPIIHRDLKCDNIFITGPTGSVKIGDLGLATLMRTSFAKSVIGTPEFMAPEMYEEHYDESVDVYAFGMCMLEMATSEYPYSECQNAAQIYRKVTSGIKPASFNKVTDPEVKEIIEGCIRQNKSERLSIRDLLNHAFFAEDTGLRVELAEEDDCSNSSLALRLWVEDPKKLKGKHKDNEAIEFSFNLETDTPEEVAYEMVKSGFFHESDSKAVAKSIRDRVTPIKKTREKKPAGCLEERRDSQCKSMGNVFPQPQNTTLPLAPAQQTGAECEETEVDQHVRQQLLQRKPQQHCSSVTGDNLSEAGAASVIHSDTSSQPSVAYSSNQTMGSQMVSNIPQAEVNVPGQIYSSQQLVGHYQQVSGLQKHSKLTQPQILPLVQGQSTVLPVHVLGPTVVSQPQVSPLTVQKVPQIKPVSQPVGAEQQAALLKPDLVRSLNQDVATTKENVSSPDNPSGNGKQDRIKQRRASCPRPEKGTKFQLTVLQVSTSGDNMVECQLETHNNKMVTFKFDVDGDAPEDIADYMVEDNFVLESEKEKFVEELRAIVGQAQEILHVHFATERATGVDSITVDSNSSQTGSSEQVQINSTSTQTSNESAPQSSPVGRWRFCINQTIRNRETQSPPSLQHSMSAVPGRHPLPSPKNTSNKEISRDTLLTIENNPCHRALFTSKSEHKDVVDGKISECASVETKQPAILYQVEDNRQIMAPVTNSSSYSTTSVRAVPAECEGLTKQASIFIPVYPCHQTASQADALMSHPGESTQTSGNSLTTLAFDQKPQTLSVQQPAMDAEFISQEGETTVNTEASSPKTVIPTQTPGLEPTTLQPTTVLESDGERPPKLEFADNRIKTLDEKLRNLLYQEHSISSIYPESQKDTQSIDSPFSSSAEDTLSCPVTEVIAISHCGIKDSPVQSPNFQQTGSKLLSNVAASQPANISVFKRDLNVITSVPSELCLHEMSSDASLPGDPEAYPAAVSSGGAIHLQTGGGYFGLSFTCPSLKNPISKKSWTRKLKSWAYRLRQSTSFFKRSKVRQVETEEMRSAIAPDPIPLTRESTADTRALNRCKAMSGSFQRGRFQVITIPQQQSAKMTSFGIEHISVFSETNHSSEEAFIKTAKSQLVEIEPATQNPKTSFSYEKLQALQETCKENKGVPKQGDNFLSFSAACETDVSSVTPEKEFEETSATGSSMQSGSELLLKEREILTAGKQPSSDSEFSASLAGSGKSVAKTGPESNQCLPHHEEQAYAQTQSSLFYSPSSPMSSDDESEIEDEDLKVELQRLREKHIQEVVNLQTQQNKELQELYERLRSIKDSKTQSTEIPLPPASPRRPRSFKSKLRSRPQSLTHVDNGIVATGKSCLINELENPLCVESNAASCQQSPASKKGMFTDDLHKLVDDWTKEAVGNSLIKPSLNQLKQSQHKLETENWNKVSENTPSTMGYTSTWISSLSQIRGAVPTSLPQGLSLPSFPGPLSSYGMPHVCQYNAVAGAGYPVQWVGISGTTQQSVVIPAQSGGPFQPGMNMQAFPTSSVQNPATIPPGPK
Tyrosine-protein kinase ABL1 (Homo sapiens), P00519 [F317L], sequence (P00519 whole entry F317L): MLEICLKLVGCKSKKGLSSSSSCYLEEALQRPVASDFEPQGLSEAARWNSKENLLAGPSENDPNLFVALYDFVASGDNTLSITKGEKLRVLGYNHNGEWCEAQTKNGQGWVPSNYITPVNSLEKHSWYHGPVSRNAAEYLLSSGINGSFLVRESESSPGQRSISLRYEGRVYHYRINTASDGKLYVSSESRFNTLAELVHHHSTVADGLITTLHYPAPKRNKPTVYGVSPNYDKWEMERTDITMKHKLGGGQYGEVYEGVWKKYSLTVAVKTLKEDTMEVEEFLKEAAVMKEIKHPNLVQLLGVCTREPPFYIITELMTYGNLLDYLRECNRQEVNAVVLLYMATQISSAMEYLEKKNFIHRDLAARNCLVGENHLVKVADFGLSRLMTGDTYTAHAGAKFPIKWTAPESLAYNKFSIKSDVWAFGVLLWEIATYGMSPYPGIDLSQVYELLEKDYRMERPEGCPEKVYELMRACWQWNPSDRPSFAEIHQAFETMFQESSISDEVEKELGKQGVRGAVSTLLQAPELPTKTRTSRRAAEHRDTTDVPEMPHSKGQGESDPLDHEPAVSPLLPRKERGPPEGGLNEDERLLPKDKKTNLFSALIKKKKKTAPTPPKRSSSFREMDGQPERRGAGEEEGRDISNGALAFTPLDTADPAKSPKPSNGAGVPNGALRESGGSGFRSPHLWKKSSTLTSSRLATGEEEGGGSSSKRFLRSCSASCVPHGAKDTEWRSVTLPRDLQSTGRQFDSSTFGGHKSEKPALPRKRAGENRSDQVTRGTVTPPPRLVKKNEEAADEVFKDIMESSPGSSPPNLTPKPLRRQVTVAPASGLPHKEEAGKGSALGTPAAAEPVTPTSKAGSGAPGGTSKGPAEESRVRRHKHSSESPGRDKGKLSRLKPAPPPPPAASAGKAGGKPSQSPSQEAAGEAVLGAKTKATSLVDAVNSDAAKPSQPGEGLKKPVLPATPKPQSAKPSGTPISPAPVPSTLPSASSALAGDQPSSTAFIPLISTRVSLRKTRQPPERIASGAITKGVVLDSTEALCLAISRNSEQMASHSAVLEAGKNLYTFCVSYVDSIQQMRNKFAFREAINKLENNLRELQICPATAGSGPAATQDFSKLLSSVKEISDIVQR
Casein kinase I isoform gamma-2 (Homo sapiens), sequence (P78368 whole entry, looked up, the tested form may be a part, canonical isoform): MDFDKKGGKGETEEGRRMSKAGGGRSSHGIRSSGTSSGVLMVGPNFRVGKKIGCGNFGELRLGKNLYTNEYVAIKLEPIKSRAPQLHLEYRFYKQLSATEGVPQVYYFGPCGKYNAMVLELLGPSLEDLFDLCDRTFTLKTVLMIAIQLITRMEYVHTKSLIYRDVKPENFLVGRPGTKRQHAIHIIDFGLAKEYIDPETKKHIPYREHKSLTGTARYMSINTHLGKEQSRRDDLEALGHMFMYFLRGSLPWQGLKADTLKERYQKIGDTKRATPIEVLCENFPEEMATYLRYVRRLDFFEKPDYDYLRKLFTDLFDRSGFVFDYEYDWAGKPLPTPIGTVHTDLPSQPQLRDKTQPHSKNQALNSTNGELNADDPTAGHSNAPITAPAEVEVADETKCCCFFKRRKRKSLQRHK
Tyrosine-protein kinase ABL1 (Homo sapiens), sequence (P00519 whole entry): as the sequence (P00519 whole entry F317L) above, with L317F counted along it

Cc1nc(N2CC[C@@H](O)C2)ncc1-c1cc(C(F)(F)F)cc2[nH]ncc12 [TP-004]
inactive: residual activity [1] 100% | residual activity [2] 100% | residual activity [3] 61% | residual activity [4] 63% | residual activity [5] 77% | residual activity [6] 82% | residual activity [7] 100% | residual activity [8] 89% | residual activity [9] 100% | residual activity [10] 100% | residual activity [11] 100% | residual activity [12] 100% | residual activity [13] 69% | residual activity [14] 54% | residual activity [15] 54% | residual activity [16] 89% | residual activity [17] 100% | residual activity [18] 69% | residual activity [19] 94% | residual activity [20] 85% | residual activity [21] 100% | residual activity [22] 60% | residual activity [23] 74% | residual activity [24] 74% | residual activity [25] 76% | residual activity [26] 98% | residual activity [27] 100% | residual activity [28] 100% | residual activity [29] 100% | residual activity [30] 100% | residual activity [31] 52% | residual activity [32] 100% | residual activity [33] 88% | residual activity [34] 100% | residual activity [35] 100% | residual activity [36] 95% | residual activity [37] 100% | residual activity [38] 51% | residual activity [39] 90% | residual activity [40] 100% | residual activity [41] 100% | residual activity [42] 67% | residual activity [43] 100% | inhibition [44] -2.23% | inhibition [45] 20.7%
